Biological target: T1, CFTR (Homo sapiens, UniProt P13569, DEL508-508)
T1 construct: Primary CF airway epithelial cells were obtained from the UNC Cystic Fibrosis Tissue Procurement and Cell Culture Core; host or cells: primary CF airway epithelial cells, differentiated at the air-liquid interface
Assay: Equivalent current assay in primary CF airway epithelial cells (NAUC, combination with 1st site corrector FDL169 or VX-809)
Assay type: cell-based
Conditions: 37° C., 24 h

[1] = test compound 1 μM in combination with 1st site corrector FDL169 (3 μM)
[2] = test compound 3 μM in combination with 1st site corrector FDL169 (3 μM)
[3] = test compound 10 μM in combination with 1st site corrector VX-809 (3 μM)
[4] = test compound 10 μM in combination with 1st site corrector FDL169 (3 μM)
[5] = test compound 1 μM in combination with 1st site corrector VX-809 (3 μM)
[6] = test compound 3 μM in combination with 1st site corrector VX-809 (3 μM)

T1 sequence (P13569 with tags, fused parts or gaps DEL508-508): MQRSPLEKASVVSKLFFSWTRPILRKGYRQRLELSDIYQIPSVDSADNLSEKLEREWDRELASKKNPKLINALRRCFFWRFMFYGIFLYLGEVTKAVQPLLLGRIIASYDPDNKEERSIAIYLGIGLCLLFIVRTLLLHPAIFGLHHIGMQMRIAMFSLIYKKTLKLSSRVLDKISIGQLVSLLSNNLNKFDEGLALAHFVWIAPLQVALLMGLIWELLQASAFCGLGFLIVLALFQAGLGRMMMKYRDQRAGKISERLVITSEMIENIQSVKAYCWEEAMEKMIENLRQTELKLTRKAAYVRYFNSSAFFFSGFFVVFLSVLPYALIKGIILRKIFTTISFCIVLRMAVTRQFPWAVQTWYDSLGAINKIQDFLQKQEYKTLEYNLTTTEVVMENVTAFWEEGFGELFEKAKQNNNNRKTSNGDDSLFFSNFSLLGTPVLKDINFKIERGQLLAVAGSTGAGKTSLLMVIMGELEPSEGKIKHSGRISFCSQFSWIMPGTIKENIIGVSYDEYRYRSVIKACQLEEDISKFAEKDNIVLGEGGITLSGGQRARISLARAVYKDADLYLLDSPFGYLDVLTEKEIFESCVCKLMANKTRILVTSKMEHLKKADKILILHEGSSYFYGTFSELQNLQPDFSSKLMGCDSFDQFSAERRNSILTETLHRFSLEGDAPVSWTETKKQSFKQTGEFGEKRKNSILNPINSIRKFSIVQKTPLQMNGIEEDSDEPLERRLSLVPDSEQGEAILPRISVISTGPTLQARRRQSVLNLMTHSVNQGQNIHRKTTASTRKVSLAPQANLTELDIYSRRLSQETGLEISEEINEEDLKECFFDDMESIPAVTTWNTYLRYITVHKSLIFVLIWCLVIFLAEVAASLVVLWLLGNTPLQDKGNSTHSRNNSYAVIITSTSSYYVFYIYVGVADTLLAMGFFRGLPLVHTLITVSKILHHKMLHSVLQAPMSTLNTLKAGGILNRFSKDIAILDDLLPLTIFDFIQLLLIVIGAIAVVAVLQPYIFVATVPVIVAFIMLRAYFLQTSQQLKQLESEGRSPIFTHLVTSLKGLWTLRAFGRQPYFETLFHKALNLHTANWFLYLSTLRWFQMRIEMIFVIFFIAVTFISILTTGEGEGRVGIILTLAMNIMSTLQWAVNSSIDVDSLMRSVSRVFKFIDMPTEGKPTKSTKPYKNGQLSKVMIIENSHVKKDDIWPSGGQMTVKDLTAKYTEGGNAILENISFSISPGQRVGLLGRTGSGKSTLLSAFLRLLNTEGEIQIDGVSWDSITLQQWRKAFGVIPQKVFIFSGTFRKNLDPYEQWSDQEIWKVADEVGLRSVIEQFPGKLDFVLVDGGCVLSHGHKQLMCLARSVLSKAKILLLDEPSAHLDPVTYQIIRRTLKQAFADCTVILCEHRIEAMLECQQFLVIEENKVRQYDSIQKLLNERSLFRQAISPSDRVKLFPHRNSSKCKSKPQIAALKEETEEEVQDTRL

Structure (SMILES)	Nauc @ 1 μM [1]	Nauc @ 3 μM [2]	Nauc @ 10 μM [3]	further results
CC(C)(C)CN(C(=O)[C@H]1[C@H]2C[C@](C)(OCc3ccccc3)CN2[C@]2(C(=O)Nc3c(Cl)cc(Cl)cc32)[C@H]1C(=O)O)c1cc(Cl)cc(Cl)c1 [Example 90, (1′R,2′S,3R,6′S,7a′R)-6′-(benzyloxy)-5,7-dichloro-1-((3,5-dichlorophenyl)(neopentyl)carbamoyl)-6′-methyl-2-oxo-1′,2′,5′,6′,7′,7a′-hexahydrospiro[indoline-3,3′-pyrrolizine]-2′-carboxylic acid]	+ (NAUC “+” refers to an observed NAUC <140% of positive control)	+ (NAUC “+” refers to an observed NAUC <140% of positive control)		
CC(C)(C)CN(C(=O)[C@H]1[C@@H](C(=O)O)[C@]2(C(=O)Nc3c(Cl)cc(Cl)cc32)N2CC(F)(F)C[C@@H]12)c1cc(Cl)cc(Cl)c1 [Example 111, (1′S,2′R,3S,7a′S)-5,7-dichloro-1-((3,5-dichlorophenyl)(neopentyl)carbamoyl)-6′,6′-difluoro-2-oxo-1′,2′,5′,6′,7′,7a′-hexahydrospiro[indoline-3,3′-pyrrolizine]-2′-carboxylic acid]	+ (NAUC “+” refers to an observed NAUC <140% of positive control)	++ (NAUC “++” refers to an observed NAUC 170-140% of positive control)		
Cn1cnc2cc(NC(=O)[C@H]3[C@H]4CC(F)(F)CN4[C@]4(C(=O)Nc5c(Cl)cc(Cl)cc54)[C@H]3C(=O)O)ccc21 [Example 146]	+ (NAUC “+” refers to an observed NAUC <140% of positive control)	+ (NAUC “+” refers to an observed NAUC <140% of positive control)		
Cn1c(NC(=O)[C@H]2[C@H]3CC(F)(F)CN3[C@]3(C(=O)Nc4c(Cl)cc(Cl)cc43)[C@H]2C(=O)O)nc2ccccc21 [Example 139]	+ (NAUC “+” refers to an observed NAUC <140% of positive control)	+ (NAUC “+” refers to an observed NAUC <140% of positive control)		
O=C(Nc1cc(Cl)cc(Cl)c1)C1C(C(F)(F)c2cccc(Cl)c2)NC2(C(=O)Nc3c(Cl)cc(Cl)cc32)C1C(=O)O (stereo not drawn) [Example 68.a]			+ (NAUC “+” refers to an observed NAUC <140% of positive control)	
O=C(Nc1cc(Cl)cc(Cl)c1)C1C(C(F)(F)c2ccc(C(F)(F)F)cc2)NC2(C(=O)Nc3c(Cl)cc(Cl)cc32)C1C(=O)O (stereo not drawn) [Example 73.b]			+ (NAUC “+” refers to an observed NAUC <140% of positive control)	
O=C(Nc1cncc(C(F)(F)F)n1)C1C2C[C@@](O)(C(F)(F)F)CN2C2(C(=O)Nc3c(Cl)cc(Cl)cc32)C1C(=O)O (single isomer, unassigned) [Example 75.a]			+ (NAUC “+” refers to an observed NAUC <140% of positive control)	
CC(C)(CO)c1cccc(CCNC(=O)[C@H]2[C@H]3CC(F)(F)CN3C3(C(=O)Nc4c(Cl)cc(Cl)cc43)[C@H]2C(=O)O)c1 (stereo partly drawn) [Example 293]			+ (NAUC “+” refers to an observed NAUC <140% of positive control)	
O=C(Nc1cc(Cl)cc(Cl)c1)C1C(C(F)(F)c2ccncc2)NC2(C(=O)Nc3c(Cl)cc(Cl)cc32)C1C(=O)O (stereo not drawn) [Example 66.9a, 5,7-dichloro-4′-((3,5-dichlorophenyl)carbamoyl)-5′-(difluoro(pyridin-4-yl)methyl)-2-oxospiro[indoline-3,2′-pyrrolidine]-3′-carboxylic acid]			+ (NAUC “+” refers to an observed NAUC <140% of positive control)	
O=C(Nc1ccccc1O)C1C2CC(F)(F)CN2C2(C(=O)Nc3c(Cl)cc(Cl)cc32)C1C(=O)O (stereo not drawn) [Example 78.a]			+ (NAUC “+” refers to an observed NAUC <140% of positive control)	
COc1ccc2c(c1)C1(C(=O)N2)[C@@H](C(=O)O)[C@@H](C(=O)N(C)c2cc(Cl)cc(Cl)c2)[C@H]2CC(F)(F)CN21 (stereo partly drawn) [Example 103]	+ (NAUC “+” refers to an observed NAUC <140% of positive control)	+ (NAUC “+” refers to an observed NAUC <140% of positive control)		Nauc @ 10 μM [4]: + (NAUC “+” refers to an observed NAUC <140% of positive control)
COc1c(Cl)cc(N(C)C(=O)[C@H]2[C@H]3CC(F)(F)CN3C3(C(=O)Nc4c(Cl)cc(Cl)cc43)[C@H]2C(=O)O)cc1Cl (stereo partly drawn) [Example 291]			+++ (NAUC “+++” refers to an observed NAUC>170% of positive control)	Nauc @ 1 μM [5]: + (NAUC “+” refers to an observed NAUC <140% of positive control); Nauc @ 3 μM [6]: + (NAUC “+” refers to an observed NAUC <140% of positive control)
O=C(O)[C@H]1[C@@H](C(=O)N(CC2CC2)c2cccc(C3(C(F)(F)F)CC3)c2)[C@H]2CC(F)(F)CN2[C@]12C(=O)Nc1c(Cl)cc(Cl)cc12 [Example 189]	++ (NAUC “++” refers to an observed NAUC 170-140% of positive control)	+ (NAUC “+” refers to an observed NAUC <140% of positive control)		
CN1C(=O)[C@]2(c3cc(Cl)cc(Cl)c31)[C@@H](C(=O)O)[C@@H](C(=O)N(CC(C)(C)C)c1cc(Cl)cc(Cl)c1)[C@H]1CC(F)(F)CN12 [Example 207]	++ (NAUC “++” refers to an observed NAUC 170-140% of positive control)	++ (NAUC “++” refers to an observed NAUC 170-140% of positive control)		
O=C(Nc1cc(Cl)cc(Cl)c1)C1C2C[C@@](O)(C(F)(F)F)CN2C2(C(=O)Nc3c(Cl)cc(Cl)cc32)C1C(=O)O (stereo partly drawn) [Example 56]			+++ (NAUC “+++” refers to an observed NAUC>170% of positive control)	Nauc @ 3 μM [6]: +++ (NAUC “+++” refers to an observed NAUC>170% of positive control)
O=C(Nc1cc(Cl)c(OC(F)F)c(Cl)c1)C1C2CC(F)(F)CN2C2(C(=O)Nc3c(Cl)cc(Cl)cc32)C1C(=O)O (stereo not drawn) [Example 20]			+++ (NAUC “+++” refers to an observed NAUC>170% of positive control)	Nauc @ 3 μM [6]: +++ (NAUC “+++” refers to an observed NAUC>170% of positive control)
Cc1ccccc1C(F)(F)C1NC2(C(=O)Nc3c(Cl)cc(Cl)cc32)C(C(=O)O)C1C(=O)Nc1cc(Cl)cc(Cl)c1 (stereo not drawn) [Example 61]			+++ (NAUC “+++” refers to an observed NAUC>170% of positive control)	Nauc @ 3 μM [6]: +++ (NAUC “+++” refers to an observed NAUC>170% of positive control)
O=C(Nc1ccc2ncccc2c1)[C@H]1[C@H]2CC(F)(F)CN2[C@]2(C(=O)Nc3c(Cl)cc(Cl)cc32)[C@H]1C(=O)O [Example 120]			+ (NAUC “+” refers to an observed NAUC <140% of positive control)	Nauc @ 1 μM [5]: + (NAUC “+” refers to an observed NAUC <140% of positive control); Nauc @ 3 μM [6]: + (NAUC “+” refers to an observed NAUC <140% of positive control)
CN(C(=O)[C@H]1[C@H]2CC(F)(F)CN2[C@]2(C(=O)N(COC(=O)C(C)(C)C)c3c(Cl)cc(Cl)cc32)[C@H]1C(=O)OCOC(=O)C(C)(C)C)c1cc(Cl)cc(Cl)c1 (racemic) [Example 251c, rac-(pivaloyloxy)methyl (1′R,2′S,3R,7a′R)-5,7-dichloro-1-((3,5-dichlorophenyl)(methyl)carbamoyl)-6′,6′-difluoro-2-oxo-1-((pivaloyloxy)methyl)-1′,2′,5′,6′,7′,7a′-hexahydrospiro[indoline-3,3′-pyrrolizine]-2′-carboxylate]			+ (NAUC “+” refers to an observed NAUC <140% of positive control)	
O=C(O)[C@H]1[C@@H](C(=O)N(CC2CCCC2)c2cc(Cl)cc(Cl)c2)[C@H]2CC(F)(F)CN2[C@]12C(=O)Nc1c(Cl)cc(Cl)cc12 [Example 145]	+++ (NAUC “+++” refers to an observed NAUC>170% of positive control)	+++ (NAUC “+++” refers to an observed NAUC>170% of positive control)		Nauc @ 10 μM [4]: +++ (NAUC “+++” refers to an observed NAUC>170% of positive control)
CN(C(=O)[C@H]1[C@H]2CC(F)(F)CN2[C@]2(C(=O)Nc3c(Cl)cc(Cl)cc32)[C@H]1C(=O)NS(C)(=O)=O)c1cc(Cl)cc(Cl)c1 (relative stereo) [Example 231, rel-(1′R,2′S,3R,7a′R)-5,7-dichloro-N1′-(3,5-dichlorophenyl)-6′,6′-difluoro-N1′-methyl-N2′-(methylsulfonyl)-2-oxo-1′,2′,5′,6′,7′,7a′-hexahydrospiro[indoline-3,3′-pyrrolizine]-1′,2′-dicarboxamide]			+ (NAUC “+” refers to an observed NAUC <140% of positive control)	
O=C(O)[C@H]1[C@@H](C(=O)N(CC2CC2)c2cc(Cl)cc(Cl)c2)[C@H]2CC(F)(F)CN2[C@]12C(=O)Nc1c(Cl)cc(Cl)cc12 [Example 173]	+++ (NAUC “+++” refers to an observed NAUC>170% of positive control)	+++ (NAUC “+++” refers to an observed NAUC>170% of positive control)		Nauc @ 10 μM [4]: + (NAUC “+” refers to an observed NAUC <140% of positive control)
O=C(Nc1cc(Cl)cc(Cl)c1)C1C(C(F)(F)c2ccccn2)NC2(C(=O)Nc3c(Cl)cc(Cl)cc32)C1C(=O)O (stereo not drawn) [Example 72.c]			++ (NAUC “++” refers to an observed NAUC 170-140% of positive control)	

From US20230055237A1, “COMPOUNDS AND METHODS FOR THE TREATMENT OF CYSTIC FIBROSIS” (Flatley Discovery Lab, LLC, priority 2019, published 2023)
